Publication PMC12797155 (ACS Pharmacology & Translational Science, 2025)
Values joined by “and” are separate entries in the source; they are usually repeats but may differ in a detail not shown here. Equal values may be shown once.

What was measured:
PAR4 [1] = target: T1, PAR4 (Homo sapiens, UniProt Q96RI0); assay: Human platelet flow cytometry assay, PAR4 activation (α-thrombin + vorapaxar); type: cell-based; conditions: human platelets, α-thrombin + vorapaxar; N = 3
T1 sequence (Q96RI0 48-385): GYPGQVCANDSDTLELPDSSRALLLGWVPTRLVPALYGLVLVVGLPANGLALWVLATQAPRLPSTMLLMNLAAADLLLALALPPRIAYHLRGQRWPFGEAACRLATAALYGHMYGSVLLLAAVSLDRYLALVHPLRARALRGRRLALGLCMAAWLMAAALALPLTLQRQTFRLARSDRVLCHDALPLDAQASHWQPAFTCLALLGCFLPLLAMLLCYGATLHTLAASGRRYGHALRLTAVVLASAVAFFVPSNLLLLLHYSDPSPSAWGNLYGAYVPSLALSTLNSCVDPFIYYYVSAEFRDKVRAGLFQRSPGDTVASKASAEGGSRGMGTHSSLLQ
Text: (§1) Same as described previously.
(§2) In the flow cytometry experiments, thrombin activates PAR4 on human platelets. […] In the flow cytometry assay, human platelets are stimulated with thrombin in the presence of either a PAR4 antagonist (BMS-3) or a PAR1 antagonist (Vorapaxar). This determines the IC50 of the test compound against PAR1 and PAR4 activation.

PAR4 [2] = assay: as above; type: cell-based; conditions: alpha-thrombin flow cytometry assay, human platelets; PAR4 vs PAR1
Text: as §1, §2

thrombin = target: T2, thrombin (Homo sapiens, UniProt P00734); assay: Michaelis-Menten enzyme kinetic analysis of thrombin in the presence of PAR4 antagonists; type: biochemical; design: unit not given here; conditions: thrombin in the presence of PAR4 antagonist
T2 construct: Alpha-thrombin was ordered from Enzyme Research Laboratories; purchased Enzyme Research Laboratories (South Bend, IN)
Procedure: (§3) Chromogenic substrate, S-2238, was ordered from DiaPharma (West Chester, OH). Alpha-thrombin was ordered from Enzyme Research Laboratories (South Bend, IN). White, round, clear-bottom 96-well plates were used to run the screen. The plate was read using a BioTek Neo plate reader every minute for 60 min at a wavelength of 405 nm. The substrate control wells were subtracted from the raw counts, and the data was normalized to the thrombin enzyme control wells as a percentage. The percentages were graphed in GraphPad Prism.
To also characterize what type of inhibition was occurring with these compounds, we performed Michaelis–Menten enzyme kinetic analysis. […] This is not a surprising finding, as thrombin is believed to interact with PAR4 only at the active cleft of thrombin. PAR4 lacks the hirudin-like binding domain that PAR1 has, which enables PAR1 to have a higher affinity to thrombin.
2 Thrombin inhibition characterization of PAR4 antagonists. A) Michaelis–Menten plot depicting thrombin enzymatic activity in the presence of various PAR4 antagonists. B) Lineweaver–Burk plot of the Michaelis–Menten plot.

alpha thrombin = target: T3, alpha thrombin (Homo sapiens, UniProt P00734); assay: Chromogenic thrombin activity assay with substrate S-2238; type: biochemical; conditions: for inhibition at 0.5 µM: read-out: inhibition of thrombin; for IC50: thrombin activity assay, N = 3, read-out: IC50 against thrombin (S-2238 Thrombin Kinetic Assay)
T3 construct: Alpha-thrombin was ordered from Enzyme Research Laboratories; purchased Enzyme Research Laboratories (South Bend, IN)
Procedure: as §3, with “Prism. To investigate thrombin inhibition, we utilized a chromogenic assay with a thrombin substrate, S-2238. Thrombin activity was measured by the production of a visible color change to substrate S-2238. Each assay run included a substrate control, where just substrate was added to the well without thrombin enzyme, an enzyme control (EC), which consisted of thrombin without any inhibitor present, and an inhibitor control (IC), which contained a known thrombin inhibitor, Argatroban.” for “Prism.”

Row | Molecule | IC50 (PAR4 [1]) [nM] | preference for PAR4 over PAR1 (PAR4 [2]) | Vmax (thrombin) | inhibition at 0.5 µM (alpha thrombin) [%] | IC50 (alpha thrombin)
1 | CC1CNc2c(cccc2S(=O)(=O)N[C@@H](CCCNC(=N)N)C(=O)N2CC[C@@H](C)C[C@@H]2C(=O)O)C1 (stereo partly drawn) [Argatroban, reference compound] | 65.2 | no preference for PAR4 over PAR1 | – | – | –
2 | COc1ccc2cc(-c3cn4nc(SC)sc4n3)oc2c1 [Compound 6PMJ] | – | – | 0.08856 | – | –
3 | Cc1nc(NC(=O)c2cc(C(=O)OC(C)(C)C)n(-c3ccccc3)n2)n[nH]1 [Compound 7] | 6600 | – | 0.08588 | – | –
4 | Cc1cc(C(=O)Nc2nc(-c3cccc(OC(F)F)c3)n[nH]2)nn1-c1ccccc1 [Compound 9] | – | – | 0.0849 | – | –
5 | Cn1nc(C(=O)Nc2n[nH]c(-c3c(F)cccc3F)n2)cc1C1CC1 [Compound 12] | ~149 | – | – | ~70 | ~71 nM and 70.6 nM
6 | O=C(Nc1n[nH]c(-c2ccc(F)cc2F)n1)c1nn(-c2ccccc2)c2c1CCCC2 [Compound 31] | ~160 | – | 0.1010 | ~70 | ~1000 nM and 1090 nM
7 | COc1cccc(-c2nc(NC(=O)c3nn(-c4ccccc4)c4c3CCCC4)n[nH]2)c1 [Compound 32] | – | – | 0.09616 | – | –
8 | Hirugen [reference compound] | – | no preference for PAR4 over PAR1 | – | – | –
